Source: ChEMBL document CHEMBL1201862, “PubChem BioAssay data set” (2004)
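Growth conditions: 96-well plates. Treatment: test compound, 48 hours, 5 concentrations. Analysis: linear interpolation between bracketing concentrations; unreached endpoints set to highest concentration. Here, GI50 denotes the concentration required for 50% inhibition of growth.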 Activity calls are given as the source filed them. Cut-off read from the data, not from the text of the source: active = GI50 up to about 1.1 µM and inactive = higher.

Columns and labels:
Assay in all cases: DTP human tumour cell line panel, 48 h
[1] = tested on: HT-29
[2] = tested on: CAKI-1
[3] = tested on: Malme-3M
[4] = tested on: BT-549
[5] = tested on: NCI/ADR-RES
[6] = tested on: SNB-75
[7] = tested on: SK-MEL-5
[8] = tested on: SF-268
[9] = tested on: K562
[10] = tested on: PC-3
[11] = tested on: TK-10
[12] = tested on: A498
[13] = tested on: SK-MEL-28
[14] = tested on: SW-620
[15] = tested on: M14
[16] = tested on: RPMI-8226
[17] = tested on: UACC-62
[18] = tested on: KM12
[19] = tested on: SNB-19
[20] = tested on: SN12C
[21] = tested on: SK-OV-3
[22] = tested on: SK-MEL-2
[23] = tested on: OVCAR-8
[24] = tested on: RXF 393
[25] = tested on: MDA-MB-435
[26] = tested on: OVCAR-4
[27] = tested on: CCRF-CEM
[28] = tested on: UO-31
[29] = tested on: ACHN
[30] = tested on: NCI-H23
[31] = tested on: EKVX
[32] = tested on: OVCAR-3
[33] = tested on: SF-295
[34] = tested on: IGROV-1
[35] = tested on: T47D
[36] = tested on: NCI-H226
[37] = tested on: OVCAR-5
[38] = tested on: DU-145
[39] = tested on: UACC-257
[40] = tested on: A549
[41] = tested on: MDA-MB-231
[42] = tested on: HCT-116
[43] = tested on: HOP-92
[44] = tested on: HOP-62
[45] = tested on: MDA-N
[46] = tested on: 786-0
[47] = tested on: U-251
[48] = tested on: HL-60
[49] = tested on: Hs-578T
[50] = tested on: LOX IMVI
[51] = tested on: NCI-H522
[52] = tested on: MOLT-4
[53] = tested on: HCT-15
[54] = tested on: SR
[55] = tested on: MCF7
[56] = tested on: COLO 205
[57] = tested on: NCI-H460
[58] = tested on: SF-539
[59] = tested on: HCC 2998

CC(=O)c1ccc2c3c1[C@@H]1O[C@@H]1c1cccc(c1-3)[C@@H]1O[C@H]21
GI50 [1]: 5.55 µM (inactive) | GI50 [2]: 4.72 µM (inactive) | GI50 [3]: 7.4 µM (inactive) | GI50 [4]: 15.1 µM (inactive) | GI50 [5]: 13.7 µM (inactive) | GI50 [6]: 13.5 µM (inactive) | GI50 [7]: 11.7 µM (inactive) | GI50 [8]: 6.62 µM (inactive) | GI50 [9]: 4.47 µM (inactive) | GI50 [10]: 17.3 µM (inactive) | GI50 [11]: 20.7 µM (inactive) | GI50 [12]: 21.5 µM (inactive) | GI50 [13]: 3.5 µM (inactive) | GI50 [14]: 2.54 µM (inactive) | GI50 [15]: 6.85 µM (inactive) | GI50 [16]: 5.05 µM (inactive) | GI50 [17]: 14 µM (inactive) | GI50 [18]: 7.52 µM (inactive) | GI50 [19]: 20.3 µM (inactive) | GI50 [20]: 8.26 µM (inactive) | GI50 [21]: 28.6 µM (inactive) | GI50 [22]: 14.1 µM (inactive) | GI50 [23]: 3.94 µM (inactive) | GI50 [24]: 11.5 µM (inactive) | GI50 [25]: 6.92 µM (inactive) | GI50 [26]: 13.6 µM (inactive) | GI50 [27]: 2.86 µM (inactive) | GI50 [28]: 6.84 µM (inactive) | GI50 [29]: 21.6 µM (inactive) | GI50 [30]: 7 µM (inactive) | GI50 [31]: 16.4 µM (inactive) | GI50 [32]: 13.5 µM (inactive) | GI50 [33]: 15 µM (inactive) | GI50 [34]: 0.782 µM (active) | GI50 [35]: 6.76 µM (inactive) | GI50 [36]: 37.8 µM (inactive) | GI50 [37]: 17.7 µM (inactive) | GI50 [38]: 8.39 µM (inactive) | GI50 [39]: 16.9 µM (inactive) | GI50 [40]: 14.5 µM (inactive) | GI50 [41]: 17.7 µM (inactive) | GI50 [42]: 4.54 µM (inactive) | GI50 [43]: 13.3 µM (inactive) | GI50 [44]: 13.7 µM (inactive) | GI50 [45]: 13.5 µM (inactive) | GI50 [46]: 5.6 µM (inactive) | GI50 [47]: 6.62 µM (inactive) | GI50 [48]: 9.91 µM (inactive) | GI50 [49]: 14.9 µM (inactive) | GI50 [50]: 2.07 µM (inactive) | GI50 [51]: 5.4 µM (inactive) | GI50 [52]: 14.1 µM (inactive) | GI50 [53]: 3.44 µM | GI50 [54]: > 100 µM (inactive) | GI50 [55]: 4 µM (inactive) | GI50 [56]: 9.79 µM (inactive)

COC(=O)NC(C(F)(F)F)(C(F)(F)F)P1(=O)OCCCO1
GI50 [1]: 23.8 µM (inactive) | GI50 [4]: 22.1 µM (inactive) | GI50 [5]: 39.4 µM (inactive) | GI50 [6]: 47.6 µM (inactive) | GI50 [7]: 17.6 µM (inactive) | GI50 [8]: 25.7 µM (inactive) | GI50 [9]: 22.9 µM (inactive) | GI50 [10]: 25.4 µM (inactive) | GI50 [11]: 37.4 µM (inactive) | GI50 [12]: 17 µM (inactive) | GI50 [13]: 35.6 µM (inactive) | GI50 [14]: 20.7 µM (inactive) | GI50 [15]: 24.8 µM (inactive) | GI50 [16]: 18.1 µM (inactive) | GI50 [17]: 15 µM (inactive) | GI50 [18]: 22.8 µM (inactive) | GI50 [19]: 25.5 µM (inactive) | GI50 [20]: 34.8 µM (inactive) | GI50 [21]: 18.9 µM (inactive) | GI50 [23]: 27.3 µM (inactive) | GI50 [24]: 2.74 µM (inactive) | GI50 [25]: 17.2 µM (inactive) | GI50 [26]: 32.6 µM (inactive) | GI50 [57]: 30.2 µM (inactive) | GI50 [27]: 12.6 µM (inactive) | GI50 [28]: 18.3 µM (inactive) | GI50 [29]: 21.4 µM (inactive) | GI50 [30]: 20.2 µM (inactive) | GI50 [32]: 28.3 µM (inactive) | GI50 [33]: 23.7 µM (inactive) | GI50 [34]: 22.3 µM (inactive) | GI50 [35]: 20.4 µM (inactive) | GI50 [36]: 16.2 µM (inactive) | GI50 [37]: 26.1 µM (inactive) | GI50 [38]: 53.8 µM (inactive) | GI50 [40]: 38.5 µM (inactive) | GI50 [41]: 25.3 µM (inactive) | GI50 [42]: 23.2 µM (inactive) | GI50 [43]: 35.8 µM (inactive) | GI50 [44]: 21.6 µM (inactive) | GI50 [45]: 23.2 µM (inactive) | GI50 [46]: 36.9 µM (inactive) | GI50 [47]: 13.1 µM (inactive) | GI50 [48]: 16.6 µM (inactive) | GI50 [49]: 37.4 µM (inactive) | GI50 [50]: 16.4 µM (inactive) | GI50 [51]: 14.5 µM (inactive) | GI50 [52]: 17.1 µM (inactive) | GI50 [53]: 22.8 µM | GI50 [54]: 20.7 µM (inactive) | GI50 [55]: 31.3 µM (inactive) | GI50 [58]: 21.1 µM (inactive) | GI50 [56]: 23 µM (inactive)

CCCCCCCCCCCCOc1ccc(/C=C/C2=[N+](CCCl)CCO2)cc1
GI50 [1]: > 100 µM (inactive) | GI50 [2]: > 100 µM (inactive) | GI50 [3]: > 100 µM (inactive) | GI50 [4]: > 100 µM (inactive) | GI50 [5]: 46.1 µM (inactive) | GI50 [6]: 45.5 µM (inactive) | GI50 [7]: 67 µM (inactive) | GI50 [9]: 21.3 µM (inactive) | GI50 [10]: 58.1 µM (inactive) | GI50 [11]: 47.6 µM (inactive) | GI50 [12]: > 100 µM (inactive) | GI50 [13]: > 100 µM (inactive) | GI50 [14]: > 100 µM (inactive) | GI50 [15]: > 100 µM (inactive) | GI50 [16]: 20.1 µM (inactive) | GI50 [17]: 93.3 µM (inactive) | GI50 [18]: 38 µM (inactive) | GI50 [19]: > 100 µM (inactive) | GI50 [20]: 77.4 µM (inactive) | GI50 [21]: > 100 µM (inactive) | GI50 [59]: 39.1 µM (inactive) | GI50 [22]: > 100 µM (inactive) | GI50 [23]: 56.4 µM (inactive) | GI50 [25]: 94.2 µM (inactive) | GI50 [26]: 41.7 µM (inactive) | GI50 [57]: 43.4 µM (inactive) | GI50 [27]: 22.8 µM (inactive) | GI50 [28]: 47.3 µM (inactive) | GI50 [29]: 50.2 µM (inactive) | GI50 [31]: 97.1 µM (inactive) | GI50 [32]: 19.4 µM (inactive) | GI50 [33]: 45.8 µM (inactive) | GI50 [34]: 25.4 µM (inactive) | GI50 [35]: 76.4 µM (inactive) | GI50 [36]: > 100 µM (inactive) | GI50 [37]: > 100 µM (inactive) | GI50 [38]: > 100 µM (inactive) | GI50 [39]: 63.2 µM (inactive) | GI50 [40]: 65.2 µM (inactive) | GI50 [41]: 25.1 µM (inactive) | GI50 [42]: 15.8 µM (inactive) | GI50 [43]: 25.1 µM (inactive) | GI50 [44]: > 100 µM (inactive) | GI50 [45]: 75.9 µM (inactive) | GI50 [46]: 19.2 µM (inactive) | GI50 [47]: 24.3 µM (inactive) | GI50 [48]: 12.8 µM (inactive) | GI50 [49]: 56.6 µM (inactive) | GI50 [50]: 17.7 µM (inactive) | GI50 [51]: 17 µM (inactive) | GI50 [52]: 25 µM (inactive) | GI50 [53]: 31.7 µM | GI50 [54]: 19.6 µM (inactive) | GI50 [55]: 54.2 µM (inactive) | GI50 [58]: > 100 µM (inactive) | GI50 [56]: > 100 µM (inactive)
